Results reported in paper PMC4291487, “Stress-induced ceramide generation and apoptosis via the phosphorylation and activation of nSMase1 by JNK signaling” (Cell Death and Differentiation, 2014).
Substitutions are numbered along the chain they refer to.

Key:
Type in all cases: biochemical
[1] = target: T1, nSMase1 (wild-type), zebrafish (Danio rerio, UniProt F1QUD7, S270A); test: C6-NBD-ceramide release assay; details: 37 °C; basal enzyme, not JNK-treated
T1 construct: gene smpd2a; zebrafish cDNA
T1 sequence (F1QUD7 1-421 S270A): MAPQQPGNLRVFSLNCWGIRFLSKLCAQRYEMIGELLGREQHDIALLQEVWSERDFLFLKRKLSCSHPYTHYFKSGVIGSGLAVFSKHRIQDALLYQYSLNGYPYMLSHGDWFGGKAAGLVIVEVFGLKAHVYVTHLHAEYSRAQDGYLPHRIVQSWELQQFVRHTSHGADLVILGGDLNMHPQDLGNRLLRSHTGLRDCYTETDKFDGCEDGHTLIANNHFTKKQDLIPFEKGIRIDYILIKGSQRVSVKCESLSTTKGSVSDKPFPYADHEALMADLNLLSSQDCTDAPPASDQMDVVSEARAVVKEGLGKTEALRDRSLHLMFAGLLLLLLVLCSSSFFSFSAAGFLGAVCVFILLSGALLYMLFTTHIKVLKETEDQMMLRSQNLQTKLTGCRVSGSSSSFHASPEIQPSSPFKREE

[2] = target: T2, nSMase1 (wild-type), zebrafish (Danio rerio, UniProt F1QUD7); test: C6-NBD-ceramide release assay; details: 37 °C; basal enzyme, not JNK-treated
T2 construct: gene smpd2a; zebrafish cDNA
T2 sequence (F1QUD7 1-421): T1 sequence (F1QUD7 1-421 S270A) with A270S

[3] = target: T3, mouse JNK1 (Mus musculus, UniProt Q91Y86); details: 10 μM SP600125; 0.25 mM ATP, 10 mM MgCl2, pH 7.4, 30 °C, 30 min
T3 construct: gene Mapk8; commercial recombinant protein (Cell Signaling Technology)
T3 sequence (Q91Y86 whole entry): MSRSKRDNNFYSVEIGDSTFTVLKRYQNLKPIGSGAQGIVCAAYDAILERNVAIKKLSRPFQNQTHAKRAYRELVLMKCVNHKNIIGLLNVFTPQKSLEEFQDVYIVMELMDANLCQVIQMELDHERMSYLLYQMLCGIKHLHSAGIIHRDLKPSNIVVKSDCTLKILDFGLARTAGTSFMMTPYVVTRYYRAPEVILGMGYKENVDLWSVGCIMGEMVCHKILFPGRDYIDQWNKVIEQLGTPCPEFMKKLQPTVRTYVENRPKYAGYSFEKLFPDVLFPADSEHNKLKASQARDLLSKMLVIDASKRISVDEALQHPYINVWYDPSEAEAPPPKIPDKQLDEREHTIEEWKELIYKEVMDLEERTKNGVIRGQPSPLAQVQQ

Row | Structure (SMILES) | C6-NBD-ceramide release assay [1] | C6-NBD-ceramide release assay [2] | phosphorylation inhibition at 10 μM [3]
1 | CCCCCCCCCCCCC/C=C/[C@@H](O)[C@H](COP(=O)([O-])OCC[N+](C)(C)C)NC(=O)CCCCCNc1ccc([N+](=O)[O-])c2nonc12 [C6-NBD-sphingomyelin] | nSMase activities of the recombinant proteins were determined using C6-NBD-sphingomyelin | nSMase activities of the recombinant proteins were determined using C6-NBD-sphingomyelin | 
2 | O=C1c2ccccc2-c2n[nH]c3cccc1c23 [SP600125, Anthra[1,9-cd]pyrazol-6(2H)-one] |  |  | wild-type pulsed with SP600125 were not phosphorylated
